Test results as given in ChEMBL document CHEMBL1201862, “PubChem BioAssay data set” (2004).
The source made the active and inactive calls. For most assays here, no stated cut-off is given here; in the data, actives have a measured EC50 and inactives only a lower limit.

What was measured:
Cytochrome P450 3A4 = Cytochrome P450 3A4 (Homo sapiens, UniProt P08684);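 further: CYP3A4 tested as one member of a cytochrome P450 panel screen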
Cytochrome P450 1A2 = target: T1, Cytochrome P450 1A2 (Homo sapiens, UniProt P05177);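 further: PubChem cytochrome P450 panel assay, CYP1A2 panel member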
T1 sequence (P05177 whole entry): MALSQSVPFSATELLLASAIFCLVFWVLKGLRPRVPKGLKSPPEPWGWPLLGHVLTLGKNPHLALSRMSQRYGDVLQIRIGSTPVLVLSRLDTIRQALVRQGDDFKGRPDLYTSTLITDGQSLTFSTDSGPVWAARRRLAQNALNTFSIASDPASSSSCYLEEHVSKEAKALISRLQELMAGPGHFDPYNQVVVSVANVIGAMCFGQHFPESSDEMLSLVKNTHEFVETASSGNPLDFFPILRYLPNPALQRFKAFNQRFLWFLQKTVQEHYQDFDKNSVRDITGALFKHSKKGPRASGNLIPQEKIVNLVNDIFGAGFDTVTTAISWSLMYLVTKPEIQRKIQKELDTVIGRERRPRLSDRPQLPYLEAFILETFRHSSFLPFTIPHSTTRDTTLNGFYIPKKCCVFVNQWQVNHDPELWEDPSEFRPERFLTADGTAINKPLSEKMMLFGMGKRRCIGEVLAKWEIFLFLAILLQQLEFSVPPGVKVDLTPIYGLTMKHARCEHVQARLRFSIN

Cytochrome P450 2D6 = Cytochrome P450 2D6 (Homo sapiens, UniProt P10635);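 further: CYP2D6 member of a cytochrome P450 panel assay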
Sequence of Cytochrome P450 2D6 (P10635 whole entry): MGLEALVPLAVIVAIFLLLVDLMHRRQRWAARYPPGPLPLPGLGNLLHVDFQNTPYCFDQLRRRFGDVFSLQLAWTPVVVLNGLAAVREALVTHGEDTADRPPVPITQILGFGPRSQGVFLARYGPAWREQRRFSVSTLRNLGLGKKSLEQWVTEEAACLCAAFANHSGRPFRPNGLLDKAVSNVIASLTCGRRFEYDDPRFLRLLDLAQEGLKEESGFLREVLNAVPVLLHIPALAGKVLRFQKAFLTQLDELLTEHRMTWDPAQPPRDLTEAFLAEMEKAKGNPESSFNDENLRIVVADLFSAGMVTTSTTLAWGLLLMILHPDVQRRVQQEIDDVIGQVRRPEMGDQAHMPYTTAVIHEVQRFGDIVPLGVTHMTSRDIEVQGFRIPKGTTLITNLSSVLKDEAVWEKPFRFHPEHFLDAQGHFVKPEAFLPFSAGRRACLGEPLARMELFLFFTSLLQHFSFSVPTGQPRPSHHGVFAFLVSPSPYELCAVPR

Cytochrome P450 2C9 = Cytochrome P450 2C9 (Homo sapiens, UniProt P11712)
Sequence of Cytochrome P450 2C9 (P11712 whole entry): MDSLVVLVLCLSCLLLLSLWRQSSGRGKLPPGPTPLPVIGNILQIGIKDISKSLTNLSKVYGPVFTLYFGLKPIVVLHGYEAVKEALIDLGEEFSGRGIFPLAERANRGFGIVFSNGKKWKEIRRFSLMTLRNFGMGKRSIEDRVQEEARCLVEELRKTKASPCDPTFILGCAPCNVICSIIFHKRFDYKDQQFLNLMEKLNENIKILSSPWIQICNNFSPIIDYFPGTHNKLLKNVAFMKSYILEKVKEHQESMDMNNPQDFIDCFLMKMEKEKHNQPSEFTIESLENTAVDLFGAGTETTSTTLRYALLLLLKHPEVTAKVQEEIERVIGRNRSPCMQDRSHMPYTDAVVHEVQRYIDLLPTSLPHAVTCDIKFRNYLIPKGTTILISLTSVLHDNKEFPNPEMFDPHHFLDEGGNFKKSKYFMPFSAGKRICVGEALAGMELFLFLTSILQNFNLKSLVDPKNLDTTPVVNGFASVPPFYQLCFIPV

[1] = inhibitors of firefly luciferase expression or activity, dose response, H4 neuroglioma cells, luminescence (AID 1990); type: functional, cell-based
[2] = Luminescence Cell-Based Dose Response HTS to Identify Inhibitors of 5'UTR Stem-Loop Driven Prion Protein mRNA Translation in H4 Neuroglioblastoma Cells. [Related pubchem assays: 1827 (Project Summary), 1813 (Primary HTS)]; type: functional
[3] = inhibitors of SNCA 5'UTR-driven reporter translation, confirmation, H4 neuroglioma cells, luminescence (AID 1988); type: functional, cell-based
[4] = inhibitors of intracellular T. cruzi replication, confirmation, NIH3T3 host cells, beta-gal luminescence (AID 2044); type: functional, cell-based;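 further: intracellular parasites grown in NIH/3T3 mouse fibroblasts as host cells; luminescent beta-galactosidase reporter signal from transgenic T. cruzi replicating inside host cells; inhibitors lower the luminescence signal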
[5] = cytotoxicity toward NIH3T3 fibroblasts, dose response, counter-screen, cell-based, ATP luminescence, mouse fibroblasts (AID 2010); type: functional;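 further: cells exposed to compound for about 90 hours before reading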
[6] = Luminescence Cell-Based Dose Retest to Confirm Inhibitors of Cancer Stem Cells. [Related pubchem assays (depositor defined):AID2717, AID2721]; type: functional; details: Homo sapiens
INS1 = test: beta cell apoptosis inhibitors, cytokine rescue, dose response, luminescence, retest (AID 449756); type: functional, cell-based; details: Rattus norvegicus;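 further: cell death triggered by IL-1 beta plus TNF-alpha plus IFN-gamma mixture; protective hits raise ATP signal compared with cytokine alone wells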
Streptokinase A = target: T2, Streptokinase A (Streptococcus pyogenes serotype M1, UniProt P10520); test: S. pyogenes streptokinase expression inhibitors, potency, dose response, plasminogen activation absorbance, OD405 (AID 1914); type: functional, Streptococcus pyogenes M1 GAS;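 further: secreted streptokinase activity via plasminogen activation per viability signal from cell pellet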
T2 sequence (P10520 whole entry): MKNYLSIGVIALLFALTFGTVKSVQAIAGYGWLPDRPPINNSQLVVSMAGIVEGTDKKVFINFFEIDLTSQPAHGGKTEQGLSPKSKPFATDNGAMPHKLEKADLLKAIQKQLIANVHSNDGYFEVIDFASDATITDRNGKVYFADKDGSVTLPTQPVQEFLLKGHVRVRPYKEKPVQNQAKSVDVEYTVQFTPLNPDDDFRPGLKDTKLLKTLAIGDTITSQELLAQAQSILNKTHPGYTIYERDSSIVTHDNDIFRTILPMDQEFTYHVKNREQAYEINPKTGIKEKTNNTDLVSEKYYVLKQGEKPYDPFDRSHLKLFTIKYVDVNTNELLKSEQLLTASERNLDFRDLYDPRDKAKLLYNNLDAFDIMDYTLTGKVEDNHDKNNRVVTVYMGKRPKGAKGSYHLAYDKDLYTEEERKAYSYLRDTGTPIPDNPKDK

Streptococcus = test: Group A Streptococcus viability loss, dose response, counter-screen for streptokinase expression inhibitor project, luminescence, BacTiterGlo (AID 1915); type: functional, organism-based;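 further: potency for reduction of bacterial viability or growth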
[7] = tested on: Streptococcus sp. 'group A'; test: growth inhibition of control SK(-) GAS strain, dose response, counter-screen for streptokinase expression inhibitor project, luminescence, kanamycin, BacTiterGlo, confirmation (AID 1900); type: functional, organism-based
[8] = target: T3, Heat shock factor protein 1 (Mus musculus, UniProt P38532); test: HSF1 potentiators in luciferase reporter cells, confirmation, cell-based, NIH3T3, luminescence, dose retest (AID 435004); type: functional;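 further: stress induced by proteasome inhibitor MG132 added 30 min after compound; luciferase reporter driven by HSF1 response element in NIH3T3 cells; actives raise luminescence as potentiators of the MG132 stress response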
T3 sequence (P38532 whole entry): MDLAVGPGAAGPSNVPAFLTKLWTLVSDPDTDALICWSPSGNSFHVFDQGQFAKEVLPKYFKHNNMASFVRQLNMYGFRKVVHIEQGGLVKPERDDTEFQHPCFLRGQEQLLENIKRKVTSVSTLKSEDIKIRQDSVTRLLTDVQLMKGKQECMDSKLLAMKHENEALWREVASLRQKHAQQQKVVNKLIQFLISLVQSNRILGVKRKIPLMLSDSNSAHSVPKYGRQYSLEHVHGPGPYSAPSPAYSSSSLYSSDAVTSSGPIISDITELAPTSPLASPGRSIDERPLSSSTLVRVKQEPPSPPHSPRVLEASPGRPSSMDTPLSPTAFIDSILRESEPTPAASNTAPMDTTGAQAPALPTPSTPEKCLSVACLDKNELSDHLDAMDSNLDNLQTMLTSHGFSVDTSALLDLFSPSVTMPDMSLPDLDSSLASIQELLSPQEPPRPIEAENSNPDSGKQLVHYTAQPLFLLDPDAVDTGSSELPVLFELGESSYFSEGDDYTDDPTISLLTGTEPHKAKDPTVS

Paired box protein Pax-8 = Paired box protein Pax-8 (Homo sapiens, UniProt Q06710); test: inhibitors of PAX8-driven TPO luciferase reporter, dose response, RMG-I cells, cherry-pick (AID 687027); type: functional, cell-based;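 further: luciferase reporter driven by Pax8 target thyroperoxidase promoter measured by SteadyGlo luminescence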
Sequence of Paired box protein Pax-8 (Q06710 whole entry): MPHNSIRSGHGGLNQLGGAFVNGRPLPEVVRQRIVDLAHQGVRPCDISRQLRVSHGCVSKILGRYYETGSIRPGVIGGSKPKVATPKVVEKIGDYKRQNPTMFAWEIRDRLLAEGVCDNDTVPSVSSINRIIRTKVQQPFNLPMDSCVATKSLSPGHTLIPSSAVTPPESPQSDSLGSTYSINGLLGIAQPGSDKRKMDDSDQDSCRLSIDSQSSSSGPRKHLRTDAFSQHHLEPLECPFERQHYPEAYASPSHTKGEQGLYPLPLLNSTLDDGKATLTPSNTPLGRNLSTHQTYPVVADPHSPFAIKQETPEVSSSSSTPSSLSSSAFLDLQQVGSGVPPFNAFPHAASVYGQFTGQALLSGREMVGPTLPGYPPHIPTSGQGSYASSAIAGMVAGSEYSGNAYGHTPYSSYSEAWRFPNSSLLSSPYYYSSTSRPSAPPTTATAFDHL

Sequence of Cytochrome P450 3A4 (P08684 whole entry): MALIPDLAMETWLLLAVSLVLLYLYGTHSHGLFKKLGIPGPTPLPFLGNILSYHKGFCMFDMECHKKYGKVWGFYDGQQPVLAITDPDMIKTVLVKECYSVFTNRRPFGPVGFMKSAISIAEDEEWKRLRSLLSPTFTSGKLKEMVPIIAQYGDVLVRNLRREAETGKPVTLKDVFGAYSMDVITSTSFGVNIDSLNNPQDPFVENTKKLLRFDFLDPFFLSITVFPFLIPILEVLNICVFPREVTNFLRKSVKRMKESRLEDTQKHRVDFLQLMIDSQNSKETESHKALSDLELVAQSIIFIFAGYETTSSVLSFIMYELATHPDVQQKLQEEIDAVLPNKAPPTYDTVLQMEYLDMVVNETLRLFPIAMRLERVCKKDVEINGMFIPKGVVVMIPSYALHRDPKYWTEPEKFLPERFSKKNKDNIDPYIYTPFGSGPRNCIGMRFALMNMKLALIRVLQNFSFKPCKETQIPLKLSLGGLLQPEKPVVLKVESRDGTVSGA

CC(Cc1ccccc1)N/C=C1\CC(=O)NC1=O (stereo not given)
AC50 (Cytochrome P450 3A4): 3.98 µM (inconclusive)

Cc1ccc(Oc2nnc(-c3ccccc3)cc2C#N)cc1
AC50 (Cytochrome P450 1A2): 2.51 µM (inconclusive)

O=C(NCCCN1CCN(C2CCCCC2)CC1)Nc1ccccc1C(F)(F)F
AC50 (Cytochrome P450 1A2): 25.1 µM (inconclusive)

CCNc1ncc2nc(-c3ccc(F)cc3)c(=O)n(CCC#N)c2n1
AC50 (Cytochrome P450 2D6): 0.1 µM (inconclusive)
AC50 (Cytochrome P450 1A2): 0.631 µM (inconclusive)

CCC/C=C(\CCC)C(NC(=O)c1cccs1)c1ccc(C(F)(F)F)cc1 (stereo not given)
AC50 (Cytochrome P450 2C9): 0.501 µM (inconclusive)
AC50 (Cytochrome P450 1A2): 3.16 µM (inconclusive)

CO[C@@H]1/C=C\CC(=O)N[C@@H](C)C(=O)OC[C@@H](OC)[C@H](C)CCCC(=O)OC[C@H]1C
AC50 (Cytochrome P450 3A4): 3.16 µM (inconclusive)

COC(=O)[C@@H]1CC[C@H](C)[C@@H](c2ccc(C)cc2)N1C(=O)c1ccc(/C=N\O[C@@H](C)c2cn([C@H]3COC[C@H]3O)nn2)cc1
AC50 (Cytochrome P450 2C9): 3.16 µM (inconclusive)
AC50 (Cytochrome P450 3A4): 3.16 µM (inconclusive)

COc1ccc(-c2noc(CSc3nnc(CCc4ccccc4)n3-c3ccccc3)n2)cc1OC
EC50 [1]: 14 µM (active)
EC50 [2]: 14.5 µM (active)
EC50 [3]: > 120 µM (not active)

CCN(CC)c1ccc(NC(=O)COc2ccc(C#N)cc2)cc1S(=O)(=O)Nc1ccc(OC)cc1
EC50 [1]: 20.6 µM (active)
EC50 [2]: > 120 µM (not active)
EC50 [3]: 92.7 µM (active)

Nc1sc(-c2ccccc2)n[n+]1Cc1cccc2cccnc12
EC50 [1]: > 120 µM (not active)
EC50 [2]: > 120 µM (not active)
EC50 [3]: > 120 µM (not active)
EC50 [4]: 2.77 µM (active)
EC50 [5]: > 60 µM (not active)

Cc1ccc(-c2cnc(NC(=O)CCC(=O)N3CCCCC3)n2C)cc1
AC50 (Cytochrome P450 3A4): 39.8 µM (inconclusive)
AC50 (Cytochrome P450 2D6): 14.1 µM (inconclusive)
AC50 (Cytochrome P450 1A2): 25.1 µM (inconclusive)

CC(=O)c1c(O)c(C)c(-c2ccccc2)n(-c2ccccc2)c1=O
AC50 (Cytochrome P450 1A2): 6.31 µM (inconclusive)

Cc1cccc(NC(=O)c2nc[nH]c2C(=O)N[C@@H](C)c2ccccc2)c1
AC50 [6]: 7.02 µM (active)

CCN(CC)Cc1nc(O)c2c(n1)-c1ccccc1CC21CCCC1
AC50 (Cytochrome P450 3A4): 14.1 µM (inconclusive)

Cc1cc(=O)n2nc(N3CCCC(C(=O)N4CCc5ccccc54)C3)sc2n1 (stereo not given)
EC50 [1]: 22.1 µM (active)
EC50 [2]: > 120 µM (not active)
EC50 [3]: 34.1 µM (active)

COC(=O)c1cn(-c2ccc(Cl)cc2)c(=O)c2ccccc12
EC50 [1]: 16.2 µM (active)
EC50 [2]: > 60 µM (not active)
EC50 [3]: > 120 µM (not active)

COc1ccc(/C(O)=C/C2=NCCc3cc(OC)c(OC)cc32)cc1OC
EC50 [1]: > 120 µM (not active)
EC50 [2]: > 120 µM (not active)
EC50 [3]: 84.3 µM (active)

c1ccc(-c2nnc(CSc3ccc4c(c3)OCCO4)o2)cc1
AC50 (INS1): > 260 µM (inactive)

COC(=O)c1cc2ccsc2n1CC(=O)Nc1cc(Cl)ccc1OC
EC50 [1]: 18.8 µM (active)
EC50 [2]: > 120 µM (not active)
EC50 [3]: 10.9 µM (active)

O=C(CSc1nnc(CNC(=O)c2c(F)cccc2F)o1)NCc1ccccc1
EC50 (Streptokinase A): > 150 µM (not active)
EC50 (Streptococcus): > 150 µM (not active)
EC50 [7]: > 150 µM (not active)

COc1ccc(CNC(=O)C2CCN(c3nc(OC)nc(OC)n3)CC2)cc1
EC50 [1]: > 120 µM (not active)
EC50 [2]: > 120 µM (not active)
EC50 [3]: > 120 µM (not active)

C/C(=C\C1CCCCC1)C(NC(=O)c1ccc(C(F)(F)F)cc1)c1ccc(-c2ccccc2)cc1 (stereo not given)
AC50 (Cytochrome P450 3A4): 12.6 µM (inconclusive)

CC1CCc2c(sc3nc(C4CC4)nc(N4CCN(C(=O)c5ccco5)CC4)c23)C1 (stereo not given)
AC50 (INS1): 4.18 µM (active)
EC50 (Streptokinase A): 3.24 µM (active)
EC50 (Streptococcus): 9.93 µM (active)
EC50 [7]: 3.48 µM (active)

Cc1nn(-c2ccc(F)cc2)c(Cl)c1/C=C1\C(=O)Nc2ccccc21
AC50 [6]: 1.95 µM (active)

Brc1ccc([C@H]2CN3CCSC3=N2)cc1
AC50 (Cytochrome P450 3A4): 25.1 µM (inconclusive)
AC50 (Cytochrome P450 1A2): 15.8 µM (inconclusive)

Cc1nnc(SCC2=C(C(=O)O)N3C(=O)C(NC(=O)c4cccc(F)c4F)C3SC2)s1 (stereo not given)
EC50 [8]: 246 µM (active)
EC50 (Streptokinase A): > 150 µM (not active)
EC50 (Streptococcus): 1.01 µM (active)
EC50 [7]: 0.377 µM (active)

O=C(CN1CCN(c2ncccn2)CC1)NCCC1=CCCCC1
AC50 (Cytochrome P450 3A4): 17.8 µM (inconclusive)

Clc1ccc(SCc2cc(Cl)nc(-c3ccccc3)n2)cc1
EC50 (Streptokinase A): 17 µM (active)
EC50 (Streptococcus): > 150 µM (not active)
EC50 [7]: > 150 µM (not active)

CC(C)=CCc1c(O)cc2c(c1O)C(=O)CC(c1ccc(O)cc1)O2 (stereo not given)
AC50 [6]: 3.72 µM (active)
EC50 (Streptokinase A): > 150 µM (not active)
EC50 (Streptococcus): 4 µM (active)
EC50 [7]: 3.55 µM (active)

O=c1c(CCc2ccccc2)nc2cnc(N3CCNCC3)nc2n1-c1ccccc1
AC50 (Cytochrome P450 1A2): 15.8 µM (inconclusive)

O=C(Oc1ccccc1N1C(=O)C2CCCCC2C1=O)c1ccccc1 (stereo not given)
AC50 (Cytochrome P450 2C9): 11.2 µM (inconclusive)
AC50 (Cytochrome P450 1A2): 15.8 µM (inconclusive)

O=C(Nc1cc(Sc2ccccn2)cc([N+](=O)[O-])c1)c1ccc(Cl)cc1
AC50 (INS1): 5.46 µM (active)

OC(COCc1ccccc1)Cn1cnc2ccccc21 (stereo not given)
AC50 (Cytochrome P450 1A2): 15.8 µM (inconclusive)

Oc1ccc(C[C@H]2CNC(=S)N2CC2CCCN2C[C@H](Cc2ccc(O)cc2)N2C[C@H](Cc3ccc(O)cc3)N(CC3CCCCC3)C2=S)cc1 (stereo not given in full)
AC50 (Paired box protein Pax-8): 6.44 µM (active)

COc1ccc(-n2cnnc2)cc1
AC50 (Cytochrome P450 2C9): 0.0282 µM (inconclusive)
AC50 (Cytochrome P450 1A2): 14.1 µM (inconclusive)

CCCCn1c(SCC(N)=O)nc2sc3c(c2c1=O)CCC3
AC50 [6]: 126 µM (active)

Cc1nc2ccccc2nc1-c1ccc(/N=[N+](\[O-])c2ccc(-c3nc4ccccc4nc3C)cc2)cc1
AC50 (Cytochrome P450 1A2): 6.31 µM (inconclusive)

C/C(=N\NC(=S)NC(C)C)c1ccc(C(C)(C)C)cc1
AC50 [6]: 11 µM (active)

COc1cccc(S(=O)(=O)N2CC[C@H]3[C@@H](CO)N(C)c4ccc(C#Cc5ccc(F)cc5)cc4[C@H]32)c1
AC50 (Paired box protein Pax-8): 6.92 µM (active)

O=C(CNC(=O)c1ccc(F)cc1)N/N=C/c1cc(Br)ccc1OCc1ccccc1
EC50 (Streptokinase A): > 150 µM (not active)
EC50 (Streptococcus): 32.6 µM (active)
EC50 [7]: 10.3 µM (active)

O=C(NCCCn1ccnc1)c1ccc(-c2ccccc2)cc1
AC50 (INS1): 7.41 µM (active)

Cc1cc(-c2ccccc2)nnc1NCCN1CCOCC1 [MINAPRINE]
AC50 (Cytochrome P450 2D6): 7.94 µM (inconclusive)
AC50 (Cytochrome P450 1A2): 10 µM (inconclusive)

Clc1cc(I)cc(Cl)c1N=C1NCCN1 [PI-CLONIDINE]
AC50 (Cytochrome P450 1A2): 15.8 µM (inconclusive)
